Among the data in ChEMBL document CHEMBL2021857, “Synthesis, biological activity and docking study of imidazol-5-one as novel non-nucleoside HIV-1 reverse transcriptase inhibitors” (Bioorg Med Chem, 2012) are inhibition and IC50 values, retold here.

The term inhibition denotes the change of the read-out against control, counted positive when it falls. High values mean a response far below the control, low ones a response near the control. The term IC50 denotes the concentration needed to halve the response being measured. Read a high IC50 as lower potency.

Experiment [1] has as its target Human immunodeficiency virus type 1 reverse transcriptase (Human immunodeficiency virus 1) (UniProt Q72547). The experiment in a line: Inhibition of HIV-1 reverse transcriptase at 20 ug after 1 hr by colorimetry.
Experiment [2] addresses Human immunodeficiency virus type 1 reverse transcriptase (Human immunodeficiency virus 1, UniProt Q72547). The experiment in a line: Inhibition of HIV-1 reverse transcriptase after 1 hr by colorimetry.

Molecule `C/C=C1/N=C(C)N(Cc2ccncc2)C1=O` came in with an inhibition in experiment [1] of 64.3%. Regarding `CN(C)c1ccc(/C=C2/N=C(c3ccccc3)N(Cc3ccncc3)C2=O)cc1`, the inhibition in experiment [1] worked out at 36.8%. Consider `O=C1/C(=C\c2ccccc2)N=C(c2ccccc2)N1Cc1ccncc1`, for which the inhibition in experiment [1] was 54.4%. On the same count and under the same terms, under `COc1cc(/C=C2/N=C(c3ccccc3)N(Cc3ccncc3)C2=O)ccc1O` stands 50.2%; under `COc1cc(/C=C2/N=C(c3ccccc3)N(Cc3ccncc3)C2=O)cc(OC)c1OC`, 57.8%.

`CC1=N/C(=C/c2ccccc2)C(=O)N1Cc1ccncc1` came in with an inhibition in experiment [1] of 60.7%. On the same count and under the same terms, under `COc1cc(/C=C2/N=C(C)N(Cc3ccncc3)C2=O)cc(OC)c1OC` stands 67%. Regarding `CC1=N/C(=C/c2ccco2)C(=O)N1Cc1ccncc1`, the inhibition in experiment [1] worked out at 92.7%. Besides, 2.5 µM corresponded to half-maximal inhibition in experiment [2] (IC50). The molecule `C/C=C1/N=C(c2ccccc2)N(Cc2ccncc2)C1=O` displayed an inhibition in experiment [1] of 61.5%. On to `CC1=N/C(=C/c2c[nH]c3ccccc23)C(=O)N1Cc1ccncc1`, for which, in experiment [1], the inhibition amounted to 58.7%. `O=C1/C(=C\c2ccco2)N=C(c2ccccc2)N1Cc1ccncc1`: the inhibition in experiment [1] is 62.5%. `CC1=N/C(=C/c2ccccc2O)C(=O)N1Cc1ccncc1`: in experiment [1], the inhibition was found to be 74.2%. Moreover, in experiment [2], half-maximal inhibition (IC50) was put at 3.5 µM. `COc1ccc(/C=C2/N=C(C)N(Cc3ccncc3)C2=O)cc1`: the inhibition in experiment [1] was 59.2%. As to `CC1=N/C(=C/c2ccc(Cl)cc2)C(=O)N1Cc1ccncc1`, the inhibition in experiment [1] was determined as 69.8%. In experiment [2], it took 3.9 µM to reach half-maximal inhibition (IC50). In turn, `O=C1/C(=C\c2ccccc2O)N=C(c2ccccc2)N1Cc1ccncc1` had an inhibition in experiment [1] of 43.2%.

Consider `COc1ccc(/C=C2/N=C(c3ccccc3)N(Cc3ccncc3)C2=O)cc1`, for which the inhibition in experiment [1] turned out to be 50%. Regarding `CC1=N/C(=C/c2ccc(N(C)C)cc2)C(=O)N1Cc1ccncc1`, the inhibition in experiment [1] worked out at 58.1%.

For the molecule `O=C1/C(=C\c2ccc(Cl)cc2Cl)N=C(c2ccccc2)N1Cc1ccncc1`, in experiment [1], the inhibition was determined as 70%. In addition, in experiment [2], the 50% inhibitory concentration (IC50) is 3.8 µM. Molecule `O=C1/C(=C\c2ccc(Cl)cc2)N=C(c2ccccc2)N1Cc1ccncc1` had an inhibition in experiment [1] of 47%. Still for that read-out and setting: under `CC1=N/C(=C/c2ccc(Cl)cc2Cl)C(=O)N1Cc1ccncc1` stands 62.8%.
